Source: PubChem BioAssay (NCI)
Where “and” joins values, the source holds several entries; their conditions need not be identical. Identical values can stand only once.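 Five concentrations, 48 hours, 96-well plates. GI50: concentration for 50% inhibition of growth. TGI is the concentration that stops growth completely.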

Legend:
Assay in all cases: growth of human tumour cells (NCI), 48 h
MDA-N = test system: MDA-N
MDA-MB-435 = test system: MDA-MB-435
NCI/ADR-RES ovarian = test system: NCI/ADR-RES ovarian
SNB-78 CNS = test system: SNB-78 CNS
KM20L2 colon = test system: KM20L2 colon
DMS 273 small cell lung = test system: DMS 273 small cell lung
LXFL 529 NSCLC = test system: LXFL 529 NSCLC
XF 498 CNS = test system: XF 498 CNS

Row | SMILES | TGI (MDA-MB-435) | TGI (NCI/ADR-RES ovarian) | TGI (SNB-78 CNS) | TGI (KM20L2 colon) | TGI (DMS 273 small cell lung) | TGI (LXFL 529 NSCLC) | TGI (XF 498 CNS) | GI50 (MDA-MB-435) | GI50 (NCI/ADR-RES ovarian) | other results
1 | C[C@@H](C1CC[C@H]2[C@@H]3[C@@H]4O[C@@H]4[C@@]4(O)CC=CC(=O)[C@]4(C)[C@H]3C[C@H](O)[C@]12C)[C@H]1C[C@]2(C)O[C@]2(C)C(=O)O1 (stereo partly specified) | > 100 µM | > 100 µM |  |  |  |  |  |  |  | TGI (MDA-N): > 100 µM
2 | NC(CCSCC(F)(F)F)C(=O)O (stereo unspecified) |  |  | > 100 µM | > 100 µM | > 100 µM | > 100 µM |  |  |  | 
3 | COC(=O)C(C(=O)C(=O)Nc1ccc(C)cc1)c1nc2ccc([N+](=O)[O-])cc2[nH]c1=O (stereo unspecified) |  |  | > 100 µM | > 100 µM | > 100 µM | > 100 µM | > 100 µM |  |  | 
4 | CC[C@@]1(O)C(=O)OCc2c1cc1n(c2=O)Cc2cc3cc(Cl)ccc3nc2-1 | 0.357 µM |  |  | 0.144 µM and 0.461 µM | 0.0211 µM and 0.14 µM | 2.22 µM |  | 0.089 µM |  | GI50 (SNB-78 CNS): 0.0711 µM and 0.0581 µM; GI50 (MDA-N): 0.0286 µM; TGI (MDA-N): 0.374 µM; GI50 (KM20L2 colon): 0.00997 µM and 0.0271 µM; GI50 (DMS 273 small cell lung): < 0.001 µM; GI50 (LXFL 529 NSCLC): 0.108 µM
5 | COc1cc(/C=C/C(=O)c2cccc3ccccc23)cc(OC)c1OC |  |  | 12.8 µM | 13.6 µM | 23.9 µM | 10.3 µM | 20.5 µM |  |  | 
6 | Nc1nc(N)c2c(n1)NC(c1sc(Cl)nc1Cl)CC(c1ccccc1)=N2 (stereo unspecified) | 10.2 µM | 12.4 µM |  |  |  |  |  | 1.47 µM | 3.13 µM | 
7 | O=C(Nc1ccc(OS(=O)(=O)c2ccc(F)cc2)cc1)C12CC3CC(CC(C3)C1)C2 | > 100 µM | > 100 µM |  |  |  |  |  | > 27.9 µM | 3.15 µM | 
8 | CNC(=O)c1cc(Oc2ccc3nc(NC(=O)Nc4ccc(CN5CCOCC5)c(C(F)(F)F)c4)sc3c2)ccn1 | 4.38 µM | 5.37 µM |  |  |  |  |  | 1.83 µM | 2.07 µM | 
9 | O/N=C1/CCCC/C1=C/C=C/c1ccccc1 |  |  | 77.7 µM | 33.3 µM |  | > 100 µM |  |  |  | 
10 | CC(=O)NNc1nc(C)c(C(=O)NNC(=O)C(=O)Nc2ccc(Cl)c([N+](=O)[O-])c2)s1 |  |  | > 100 µM | > 100 µM |  | > 100 µM | > 100 µM |  |  | 
11 | COc1ccc(C(c2ccccc2C(=O)O)c2ccc(OC)c3ccccc23)c2ccccc12 |  |  | 50.4 µM | 26.5 µM | 32.4 µM | 20.7 µM | 46.7 µM |  |  | 
12 | COc1ccc2[nH]c(Cl)c(/C=C3/C(=O)Nc4ccccc43)c2c1 | 0.708 µM | 3.38 µM |  |  |  |  |  | 0.251 µM | 0.715 µM | 
13 | C/C(=N\Nc1ccccc1)c1sc(-c2nc(C)c(/C(C)=N/Nc3ccccc3)s2)nc1C |  |  | > 100 µM |  | > 21.1 µM | > 82 µM | > 100 µM |  |  | 
14 | NC(Cc1ccccc1)C(=O)OCN1C(=O)C2C3C=CC(C2C1=O)C1C2C(=O)N(COC(=O)C(N)Cc4ccccc4)C(=O)C2C31 (stereo unspecified) |  |  |  | 67.2 µM and 51.5 µM |  | 39.7 µM and 37.9 µM | 71.7 µM |  |  | 
15 | CC(=O)OC1C[C@H]2C(OC(=O)c3ccccc3)C3C4(OC(C)=O)COC4C[C@H](OC(C)=O)[C@@]3(C)C(OC(C)=O)[C@H](OC(C)=O)C(=C1C)C2(C)C (stereo partly specified) |  |  | > 100 µM | > 100 µM | > 100 µM | > 100 µM | 63.8 µM |  |  | 
16 | Cc1ccc2c(c1)[n+](=O)c(C(=O)c1cccs1)c(C(F)(F)F)n2[O-] | 5.41 µM and 9.08 µM | 10.3 µM and 10.1 µM |  |  |  |  |  | 1.37 µM and 1.22 µM | 1.14 µM and 0.524 µM | 
17 | O=C1C=CC2(CCCCCCC2=O)CC1 (stereo unspecified) |  |  | > 100 µM | > 100 µM | > 100 µM | > 100 µM |  |  |  | 
18 | COc1cccc(/C=N/[N-]C(=O)c2ccncc2)c1[O-].[Mn+2].[OH3+] |  |  | > 100 µM | > 100 µM | 73.5 µM | > 100 µM | 86.9 µM |  |  | GI50 (SNB-78 CNS): > 100 µM; GI50 (KM20L2 colon): 4.51 µM; GI50 (XF 498 CNS): 12.3 µM; GI50 (DMS 273 small cell lung): 6.73 µM; GI50 (LXFL 529 NSCLC): 15.3 µM
19 | Cc1noc2cccc(O)c12 |  |  | > 100 µM | > 100 µM | > 100 µM | > 100 µM | > 100 µM |  |  | 
20 | C[C@@H](Nc1nc(N[C@H](C)C(F)(F)F)nc(-c2cccc(Cl)n2)n1)C(F)(F)F | > 100 µM | > 100 µM |  |  |  |  |  | > 100 µM | 32.9 µM | 
21 | CCc1cccc(C(C)C)c1NC(=O)CC1Sc2ccccc2NC1=O (stereo unspecified) |  |  | > 100 µM |  | > 100 µM | > 100 µM | > 100 µM |  |  | 
22 | C[C@@H](O)[C@@H](C)Oc1nc(Nc2ccc(S(=N)(=O)C3CC3)cc2)ncc1C(F)(F)F (stereo partly specified) | 1.22 µM | 28.5 µM |  |  |  |  |  | 0.0335 µM | 0.132 µM | 
23 | COc1ccc(-n2cc(-c3cc(OC)c(OC)c(OC)c3)nc2SCc2ccc(Cl)cc2)cc1OC | > 100 µM | > 100 µM |  |  |  |  |  | > 100 µM | 81.6 µM | 
24 | CC(=O)OCCOCn1c2ccccc2c2c3c(c4c5ccccc5n(COCCOC(C)=O)c4c21)C(=O)N(Cc1ccccc1)C3=O |  |  | > 100 µM | > 100 µM | > 100 µM | > 100 µM |  |  |  | 
25 | C[C@H]1CCC/C=C/C2CC(OC(=O)CN(C)C)CC2C(OC(=O)CN(C)C)/C=C/C(=O)O1 (stereo partly specified) | > 100 µM |  | > 100 µM | 0.979 µM | 27.7 µM | 8.4 µM | 1.42 µM | 0.408 µM |  | GI50 (SNB-78 CNS): 0.227 µM; GI50 (MDA-N): 0.427 µM; TGI (MDA-N): > 100 µM; GI50 (KM20L2 colon): 0.266 µM; GI50 (XF 498 CNS): 0.179 µM; GI50 (DMS 273 small cell lung): 3.77 µM; GI50 (LXFL 529 NSCLC): 0.417 µM
26 | Oc1ccc(NC(=S)Nc2ccccc2)cc1 | > 100 µM | > 100 µM |  |  |  |  |  | > 100 µM | > 100 µM | 
27 | N#C/C(=C\c1ccc(O)c(O)c1)C(=O)NCc1ccc(C(F)(F)F)cc1 | 29.4 µM | 24.7 µM |  |  |  |  |  | 5.69 µM | 5.19 µM | 
28 | CC1(C)OB(c2ccc(N(CCOS(C)(=O)=O)CCOS(C)(=O)=O)cc2)OC1(C)C | 53.4 µM | 65.2 µM |  |  |  |  |  | 23 µM | 15.8 µM | 
29 | Cc1cc2c(cc1Cl)SC(N(c1ccccc1Cl)S(=O)(=O)c1ccc(Br)s1)=NS2(=O)=O | 31.6 µM | 41.3 µM |  |  |  |  |  | 13.2 µM | 17.2 µM | 
